Assay results as given in US20240290976A1, “CYCLOTETRABENZIL COMPOUNDS FOR ELECTROCHEMICAL LITHIUM-ION STORAGE” (UNIVERSITY OF HOUSTON SYSTEM, priority 2023, published 2024).
In brackets after ≈: the same amount, converted by molar mass. Several values for one entry are separate records, joined by “and”; a condition that tells them apart may be missing. Equal entries are not always repeated.

Columns and labels:
[1] = Solubility tests in 0.5M LiTFSI DME/DOL electrolyte; format: physicochemical; conditions: 0.5M LiTFSI in DME/DOL (v:v=1:1)
Experimental: In an argon-filled glovebox, certain mass of compounds 1-4 solids were added to vials. Then, 0.5M solution of LiTFSI in DME/DOL (v:v=1:1) was slowly added dropwise and the mixture was manually stirred until all material visibly dissolved. The amount of LiTFSI solution used was recorded to determine the solubility of each compound in the electrolyte. The order of solubility from highest to lowest is compound 4 (163.7 mmol L^−1), compound 1 (12.48 mmol L^−1), compound 2 (3.57 mmol L^−1), and compound 3 (2.76 mmol L^−1).

[2] = UV-vis of soaked solutions from cathode/separator at 50% state-of-discharge; format: physicochemical; conditions: ~360 nm; 50% state-of-charge; DME/DOL
Experimental: The CR2032 coin cell with cathode 2 or cathode 4 was discharged at the rate of 100 mA g^−1 until 50% state-of-discharge and was disassembled in an argon-filled glovebox. Then, the cathode and separator were immersed into 1.0 mL DME/DOL(1/1 v %) solvent for 6h. For the UV-vis absorption measurements, 30 μL of solution was extracted from the soaked vials and diluted with 3000 μL of DME/DOL solvent.

SMILES | solubility in the electrolyte [1] | melting point | absorbance intensity of soaked solution, higher than that of compound 2 [2]
O=C1C(=O)c2ccc(cc2)C(=O)C(=O)c2ccc(cc2)C(=O)C(=O)c2ccc(cc2)C(=O)C(=O)c2ccc1cc2 [compound 1] | 12.48 mM (≈ 6600 µg/mL) |  | 
O=C1C(=O)c2ccc3cc(ccc3c2)C(=O)C(=O)c2ccc3cc(ccc3c2)C(=O)C(=O)c2ccc3cc(ccc3c2)C(=O)C(=O)c2ccc3cc1ccc3c2 [compound 2] | 3.6 ± 0.1 mM and 3.57 mM | > 360 °C (dec.) | 
O=C1C(=O)c2ccc(cc2)-c2ccc(cc2)C(=O)C(=O)c2ccc(cc2)-c2ccc(cc2)C(=O)C(=O)c2ccc(cc2)-c2ccc(cc2)C(=O)C(=O)c2ccc(cc2)-c2ccc1cc2 [compound 3] | 2.76 mM (≈ 2300 µg/mL) | 332 to 334 °C | 
O=C(C(=O)c1ccc2ccccc2c1)c1ccc2ccccc2c1 [compound 4, 1,2-bis(2-naphthyl)ethan-1,2-dione, reference compound] | 164 ± 1 mM and 163.7 mM |  | 300%
